Experimental data published in patent US20260115185A1, “QUINOLINE DERIVATIVES WHICH ACT AS KAPPA-OPIOID RECEPTOR ANTAGONISTS” (The Scripps Research Institute, priority 2023, published 2026).

How the values were obtained:
mu opioid receptor (MOR) = target: T1, mu opioid receptor (MOR) (Homo sapiens, UniProt P35372); experiment: OPRMu1 Discover X β-arrestin Assay, antagonist mode (U2OS cells, DAMGO EC80 challenge); type: cell-based
T1 construct: host or cells: U2OS (Discover X OPRMu1-U2OS, PathHunter)
T1 sequence (P35372 whole entry): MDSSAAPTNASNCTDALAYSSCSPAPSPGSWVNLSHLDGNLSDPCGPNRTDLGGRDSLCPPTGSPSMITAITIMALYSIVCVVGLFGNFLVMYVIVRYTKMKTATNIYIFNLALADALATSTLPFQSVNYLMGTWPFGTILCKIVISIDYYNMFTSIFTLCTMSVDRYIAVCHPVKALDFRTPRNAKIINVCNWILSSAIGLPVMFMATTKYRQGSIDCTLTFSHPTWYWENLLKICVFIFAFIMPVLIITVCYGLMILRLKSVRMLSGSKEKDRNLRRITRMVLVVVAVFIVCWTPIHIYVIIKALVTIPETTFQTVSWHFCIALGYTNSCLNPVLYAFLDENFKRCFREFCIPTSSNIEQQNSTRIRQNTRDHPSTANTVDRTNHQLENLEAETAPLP
Method in brief: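 PathHunter U2OS cells with β-gal fragment-complementation readout for β-arrestin recruitment to OPRMu1. Cells were preincubated with compound (10-point, 1:3 series from nominal 10 micromolar) for 30 min at 37 °C, then challenged with 303 nM DAMGO (EC80) for 3 h. Luminescence gave percent inhibition.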

[1] = target: T2, kappa opioid receptor (KOR) (Homo sapiens, UniProt P41145); experiment: OPRKappa 1 Tango B-Arrestin Assay, antagonist mode (Tango OPRK1-bla U2OS cells, U50488 EC80 challenge); type: cell-based; details: for Selectivity (MOR/KOR): Kappa selectivity, MOR IC50 / KOR IC50; for IC50: antagonist mode, Tango OPRK1-bla U2OS cells, 6 nM U50488 challenge
T2 construct: host or cells: U2OS (Tango OPRK1-bla U2OS)
T2 sequence (P41145 whole entry): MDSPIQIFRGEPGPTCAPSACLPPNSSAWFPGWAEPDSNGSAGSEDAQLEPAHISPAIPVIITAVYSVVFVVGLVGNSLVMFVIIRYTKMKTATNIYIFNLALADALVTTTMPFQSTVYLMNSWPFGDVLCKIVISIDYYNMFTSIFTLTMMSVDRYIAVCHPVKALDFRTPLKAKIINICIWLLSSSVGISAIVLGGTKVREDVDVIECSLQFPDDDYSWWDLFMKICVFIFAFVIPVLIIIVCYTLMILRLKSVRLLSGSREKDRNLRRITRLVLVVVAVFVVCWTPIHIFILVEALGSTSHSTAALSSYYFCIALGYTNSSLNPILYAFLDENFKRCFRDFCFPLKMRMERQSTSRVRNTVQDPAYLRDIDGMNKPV
Method in brief: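 Tango OPRK1-bla U2OS cells, β-arrestin recruitment read as β-lactamase FRET (CCF4-AM, 460/590 nm emission). Compounds, 10-point 1:3 series from nominal 10 µM in quadruplicate, preincubated 30 min at 37 °C, then challenged with U50488 at 6 nM final (EC80) for 4 h; percent inhibition from median ratio.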

| Structure (SMILES) | IC50 (mu opioid receptor (MOR)) [nM] | IC50 [1] [nM] | Selectivity (MOR/KOR) [1] |
| --- | --- | --- | --- |
| CCc1cc(F)c2nc(N3CCN(CC4CCOCC4)[C@H](C)C3)c(-c3nc(C)no3)c(C)c2c1 [Compound 39, (R)-5-(6-ethyl-8-fluoro-4-methyl-2-(3-methyl-4-((tetrahydro-2H-pyran-4-yl)methyl)piperazin-1-yl)quinolin-3-yl)-3-methyl-1,2,4-oxadiazole] | > 1000 | ≥ 100 | ++ (between 10- and 100-fold selectivity) |
| CCc1cc(F)c2nc(N3CCN(C4CC5(COC5)C4)C[C@H]3C)c(-c3nc(C)no3)c(C)c2c1 [Compound 41] | > 1000 | 10 to 100 | +++ (between 100- to 1000-fold selective) |
| CCc1cc(F)c2nc(N3CCN(C4CC5(CCOCC5)C4)C[C@H]3C)c(-c3nc(C)no3)c(C)c2c1 [Compound 42] | > 1000 | 10 to 100 | +++ (between 100- to 1000-fold selective) |
| CCc1cc(F)c2nc(N3CCN(C(=O)CCN(C)C)C[C@H]3C)c(-c3nc(C)no3)c(C)c2c1 [Compound 43] | > 1000 | 10 to 100 | ++ (between 10- and 100-fold selectivity) |
| CCc1cc(F)c2nc(N3CCN(C(=O)CN(C)C)C[C@H]3C)c(-c3nc(C)no3)c(C)c2c1 [Compound 44] | > 1000 | 10 to 100 | +++ (between 100- to 1000-fold selective) |
| CCc1cc(F)c2nc(N3CCN(C(=O)C4CN(C)C4)C[C@H]3C)c(-c3nc(C)no3)c(C)c2c1 [Compound 45] | > 1000 | 10 to 100 | ++ (between 10- and 100-fold selectivity) |
| CCc1cc(F)c2nc(N3CCN(C(=O)[C@@H]4CCCN4C)C[C@H]3C)c(-c3nc(C)no3)c(C)c2c1 [Compound 46] | > 1000 | 10 to 100 | +++ (between 100- to 1000-fold selective) |
| CCc1cc(F)c2nc(N3CCN(C(=O)CN4CCCC4)C[C@H]3C)c(-c3nc(C)no3)c(C)c2c1 [Compound 47, (R)-1-(4-(6-ethyl-8-fluoro-4-methyl-3-(3-methyl-1,2,4-oxadiazol-5-yl)quinolin-2-yl)-3-methylpiperazin-1-yl)-2-(pyrrolidin-1-yl)ethan-1-one] | 100 to 1000 | 1 to 10 | +++ (between 100- to 1000-fold selective) |
| CCc1cc(F)c2nc(N3CCN(/C(=N/C#N)NC[C@H](Cc4ccc(O)cc4)N(C)C)C[C@H]3C)c(-c3nc(C)no3)c(C)c2c1 [Compound 48] | 100 to 1000 | 10 to 100 | + (less than 10-fold selectivity) |
| CCc1cc(F)c2nc(N3CCN(CC4CCOCC4)C[C@H]3C)c(-c3nc(C)no3)c(C)c2c1 [Compound 49, (R)-5-(6-ethyl-8-fluoro-4-methyl-2-(2-methyl-4-((tetrahydro-2H-pyran-4-yl)methyl)piperazin-1-yl)quinolin-3-yl)-3-methyl-1,2,4-oxadiazole] | > 1000 | 10 to 100 | +++ (between 100- to 1000-fold selective) |
| Cc1noc(-c2c(N3CCN(CC4CCOCC4)C[C@H]3C)nc3c(F)cc(Cl)cc3c2C)n1 [Compound 50, (R)-5-(6-chloro-8-fluoro-4-methyl-2-(2-methyl-4-((tetrahydro-2H-pyran-4-yl)methyl)piperazin-1-yl)quinolin-3-yl)-3-methyl-1,2,4-oxadiazole] | > 1000 | ≥ 100 | ++ (between 10- and 100-fold selectivity) |
| Cc1cc(Cl)c2nc(N3CCN(CC4CCOCC4)C[C@H]3C)c(-c3nc(C)no3)c(C)c2c1 [Compound 51, (R)-5-(8-chloro-4,6-dimethyl-2-(2-methyl-4-((tetrahydro-2H-pyran-4-yl)methyl)piperazin-1-yl)quinolin-3-yl)-3-methyl-1,2,4-oxadiazole] | 100 to 1000 | 1 to 10 | +++ (between 100- to 1000-fold selective) |

Now from value to molecule, other results behind:

| IC50 (mu opioid receptor (MOR)) [nM] | IC50 [1] [nM] | Structure (SMILES) | Selectivity (MOR/KOR) [1] |
| --- | --- | --- | --- |
| > 1000 | ≥ 100 | CCc1cc(F)c2nc(N3CCN(C(=O)[C@H](Cc4ccccc4)N(C)C)C[C@H]3C)c(-c3nc(C)no3)c(C)c2c1 [Compound 52] | ++ (between 10- and 100-fold selectivity) |
| 10 to 100 | < 1 | CCc1cc(F)c2nc(N3CCN(/C(=N/C#N)NC4CC(F)(F)C4)C[C@H]3C)c(-c3nc(C)no3)c(C)c2c1 [Compound 54] | +++ (between 100- to 1000-fold selective) |
| > 1000 | 10 to 100 | CCc1cc(F)c2nc(N3CCN(/C(=N/C#N)NC)C[C@H]3C)c(-c3nc(C)no3)c(C)c2c1 [Compound 55] | ++ (between 10- and 100-fold selectivity) |
| 100 to 1000 | 10 to 100 | CCc1cc(F)c2nc(N3CCN(/C(=N\C#N)NC4CCOCC4)C[C@H]3C)c(-c3nc(C)no3)c(C)c2c1 [Compound 56] | ++ (between 10- and 100-fold selectivity) |
| > 1000 | ≥ 100 | CCc1cc(F)c2nc(N3CCN(C[C@@H]4CCOC4)C[C@H]3C)c(-c3ccn(C)n3)c(C)c2c1 [Compound 57] | ++ (between 10- and 100-fold selectivity) |
| > 1000 | 10 to 100 | CCc1cc(F)c2nc(N3CCN(C[C@H]4CCOC4)C[C@H]3C)c(-c3ccn(C)n3)c(C)c2c1 [Compound 58] | +++ (between 100- to 1000-fold selective) |
| > 1000 | 10 to 100 | CCc1cc(F)c2nc(N3CCN(CC4CC(F)(F)C4)C[C@H]3C)c(-c3nc(C)no3)c(C)c2c1 [Compound 59, (R)-5-(2-(4-((3,3-difluorocyclobutyl)methyl)-2-methylpiperazin-1-yl)-6-ethyl-8-fluoro-4-methylquinolin-3-yl)-3-methyl-1,2,4-oxadiazole] | +++ (between 100- to 1000-fold selective) |
| > 1000 | ≥ 100 | CCc1cc(F)c2nc(N3CCN(CC4CCOCC4)C4CC43)c(-c3nc(C)no3)c(C)c2c1 (centres unmarked) [Compound 60] |  |
| > 1000 | ≥ 100 | CCc1cc(-c2ccnn2C)c2nc(N3CCN(CC4CC(F)(F)C4)C[C@H]3C)c(-c3ccn(C)n3)c(C)c2c1 [Compound 61] | ++ (between 10- and 100-fold selectivity) |
| 100 to 1000 | 1 to 10 | CCc1cc(-c2ccnn2C)c2nc(N3CCN(CC4CCOCC4)C[C@H]3C)c(-c3ccn(C)n3)c(C)c2c1 [Compound 62] | +++ (between 100- to 1000-fold selective) |
| > 1000 | 10 to 100 | CCc1cc(F)c2nc(N3CCN(CC4CCOCC4)C[C@H]3C)c(-c3cc(C)no3)c(C)c2c1 [Compound 63, (R)-5-(6-ethyl-8-fluoro-4-methyl-2-(2-methyl-4-((tetrahydro-2H-pyran-4-yl)methyl)piperazin-1-yl)quinolin-3-yl)-3-methylisoxazole] | +++ (between 100- to 1000-fold selective) |
| > 1000 | ≥ 100 | CCc1cc(F)c2nc(N3CCNC4CC43)c(-c3nc(C)no3)c(C)c2c1 (centres unmarked) [Compound 64] | ++ (between 10- and 100-fold selectivity) |
| 100 to 1000 | 1 to 10 | CCc1cc(F)c2nc(N3CCC(N[C@@H]4CCOC4)CC3)c(-c3cc(C)n(C)n3)c(C)c2c1 [Compound 66] | +++ (between 100- to 1000-fold selective) |
